The subject of series [1] is lipid peroxidation reaction of liver microsome. Briefly: Cell protection activity test (inhibition of lipid peroxidation, thiobarbituric acid method). It is filed as biochemical, rat. As to conditions: 37° C 20 minutes, n = 3 - 5; for Inhibition ratio 10^-5 concentration: 10 µM; for Inhibition ratio 10^-4M concentration: final concentration 10^-4M, 100 µM. As to the method: Cell impairment caused by a radical reaction of an organic compound is known as one of optical affections on the skin.
First, rat liver microsome was obtained by a conventional method, and then, suspended in 1.15 % KCl to prepare a microsome suspension.
Then, the above microsome suspension in an amount of 2 mg as protein was added to a tris-HCl buffer (pH 7.4) containing NADPH (final concentration 0.2 mM), ADP (final concentration 1 mM) and FeCl₃ (final concentration 10 µM). And, 10 µl of a dimethylformamide (DMF) solution of a test compound was added so that the total amount was 1 ml, and the resultant mixture was warmed at 37° C for 20 minutes. The test compound was added such that the final concentration became 10⁻⁴M or 10⁻⁵M.
Thereafter, the amount of formed peroxidation lipid was measured by a thiobarbituric acid method. The inhibition activity of the test compound is expressed in terms of an inhibition ratio (%) in comparison with a control group. […] In addition, in the control group, 10 µl of DMF was used in place of 10 µl of the DMF solution of the test compound.

Series [2] can be described thus: Ultraviolet light absorption maximum and absorbance in ethanol solution. It is filed as physicochemical. As to conditions: for Absorbance 300 nm / Absorbance 350 nm / Absorbance UVmax: concentration of 10 μg/ml in an ethanol solution; for Absorbance UVmax: at UVmax; for UVmax: ultraviolet light absorption maximum.
Series [3] relates to sunburn. Briefly: Ultraviolet screening test (ointment on skin exposed to direct sunlight). It is filed as in vivo, normally healthy persons. As to conditions: ointment containing 1 wt.%, exposure time outdoors 1 hour. As to the method: 10 Milligrams of the ointment containing 1 wt.% of the known chalcone derivative in Example 14, obtained in Example 15, 10 mg of an ointment containing 1 wt.% of p-aminobenzoic acid as a control, obtained in the same manner as in Example 15 except for the use of p-aminobenzoic acid in place of the above known chalcone derivative (to be abbreviated as AO in Table 3 which will follow), and 10 mg of the same hydrophilic ointment as that used in Example 15 (to be abbreviated as HO in Table 2 which will follow) were respectively applied to the femoral region of each of normally healthy persons (10 persons) such that these became circular forms having nearly the same size. Then, these applied portions were exposed to direct sunlight outdoors in fine weather for 2 hours and 30 minutes.
After the exposure, each applied portion was visually observed. The portions where clear sunburn was recognized were taken as +, the portions where slight sunburn was recognized were taken as ±, and the portions where almost no change was recognized were taken as -. The test substances were so evaluated on their ultraviolet screening effects.
The ointment containing 1 wt.% of the novel chalcone derivative of Example 1, obtained in Example 15, the ointment containing 1 wt.% of the novel chalcone derivative of Example 1, the ointment containing 1 wt.% of the novel chalcone derivative of Example 2, the ointment containing 1 wt.% of the novel chalcone derivative of Example 4, the ointment containing 1 wt.% of the novel chalcone derivative of Example 6 and the ointment containing 1 wt.% of the known chalcone derivative of Example 9 were respectively similarly tested on their ultraviolet screening effects. However, the exposure time outdoors in fine weather was set for 1 hour. […]

Series [4] has as its system sunburn. Described as above. It is filed as in vivo, normally healthy persons. As to conditions: ointment containing 1 wt.%, exposure time outdoors 1 hour. The source holds these as a separate data set.
The subject of series [5] is notal skins of Hartley guinea pigs. Briefly: Safety test (ointment on skin under adhesive plaster, histological observation). It counts as in vivo. To be noted: 10 mg ointment containing 5 wt.%, covered with adhesive plaster for 24 hours or 72 hours. As for the experimental part: 10 milligrams of the ointment containing 5 wt.% of the known chalcone derivative of Example 14, obtained in Example 16, was applied to the notal skins of Hartley guinea pigs, and the applied portions were covered with an adhesive plaster for 24 hours or 72 hours.

Series [6] has as its system inflammation induced by an egg-white albumin-adjuvant system. Briefly: Anti-inflammatory activity test (swelling of subplantar region of right hind paw). It counts as in vivo, SD rats. To be noted: oral, 10 mg/weight-kg, 0.5 hour before inflammation inducer; measured 0.5, 1, 2, 3 and 4 hours after; Fig. 1.
Procedure: As a test group, a comparison group and a control group, 5 male SD rats weighing 180 to 220 g were used per group. Each rat was measured for a size (volume) of the subplantar region of the right hind paw.
This aluminum hydroxide was used as an adjuvant. Per rat, a solution obtained by suspending 4 mg of the adjuvant and 0.2 mg of egg-white albumin in 0.1 ml of pertussis vaccine was prepared as an inflammation inducer.
0.5 Hour after the administration, the inflammation inducer was intracutaneously administered into the subplantar region of the right hind paw of each rat to induce swelling.
Then, 0.5, 1, 2, 3 and 4 hours after the administration of the inflammation inducer, each rat was measured for a size (volume) of the subplantar region of the right hind paw by volumetry. […] [formula] Ps: Measurement value of volume of subplantar region at a measurement time (average of the group). Po: Measurement value of volume of subplantar region before administration of inflammation inducer (average of the group).
Each rat of the control group was orally administered with a 10 % Nikkol-containing physiological saline solution in place of the 10 % Nikkol-containing physiological saline solution containing 2',4'-dihydroxychalcone. Thereafter, the same procedures as those for the test group were repeated to determine the swelling as a group.
For series [7], the system named is rat abdominal cavity exudate mast cell. Briefly: Anti-allergic activity test (inhibition of free histamine from mast cell, concanavalin A as freeing agent). As to conditions: 10 min, concentration of 0.03 mM, n = 5, read-out: free histamine inhibition ratio. It is filed as cell-based, SD rat. As for the experimental part:
At first, an abdominal cavity exudate mast cell of an SD rat was obtained by a conventional method. Then, the above-obtained abdominal cavity mast cell was floated on a Locke solution, and a test substance in a predetermined concentration and phosphatidylcerine (final concentration 3 µg/ml) were added. The mixture was warmed up to 37° C, and after concanavalin A as a freeing agent was added, the mixture was maintained at 37° C for 10 minutes. Thereafter, the reaction solution was centrifugally separated to a sediment portion and a supernatant portion, and the histamine amount of each of these portions was quantitatively determined by an orthophthalaldehyde method. In addition, as a test substance, a dimethylformamide solution (final concentration 0.03 mM) of 3 mM 2',4'-dihydroxychalcone and a DMF solution (final concentration 0.03 mM) of an anti-inflammatory drug (Azelastine) were used. The free histamine ratio was calculated on the basis of the following equation. In control, the solvent alone was added. [formula] Ps: Histamine amount in sediment portion Pr: Histamine amount in supernatant portion. The free histamine inhibition ratio of the test substance was calculated on the basis of the following equation. [formula] S: Free histamine ratio when test substance is added. C: Free histamine ratio when no test substance is added (control). […]

Consider `O=C(/C=C/c1ccc(Cl)cc1)c1ccc(O)cc1O` [Example 10], for which, in series [1], the “Inhibition ratio 10^-5 concentration” value is 32% and the “Inhibition ratio 10^-4M concentration” value is reported as 90 % or more. Besides, in series [2], the “Absorbance 300 nm” value is recorded as 0.85~1.00, the “Absorbance 350 nm” value is on record as 1.15~1.30, the “Absorbance UVmax” value was 1.20~1.40 and the UVmax was found to be 322 nm.

Take `CCOc1ccccc1/C=C/C(=O)c1ccc(O)cc1O` [Example 7]: in series [1], the “Inhibition ratio 10^-5 concentration” value is listed as 90 % or more and the “Inhibition ratio 10^-4M concentration” value is on record as 90 % or more. In addition, in series [2], the “Absorbance 300 nm” value was 0.55~0.70, the “Absorbance 350 nm” value was 0.85~1.10, the “Absorbance UVmax” value was 1.10~1.30 and the UVmax was found to be 365 nm.

In the case of `O=C(/C=C/c1cccc(F)c1)c1ccc(O)cc1O` [Example 1, 2',4'-dihydroxy-3-fluoro-chalcone], in series [1], the “Inhibition ratio 10^-5 concentration” value is reported as 90 % or more and the “Inhibition ratio 10^-4M concentration” value is reported as 90 % or more. Further, in series [2], the “Absorbance 300 nm” value was 0.70~0.85, the “Absorbance 350 nm” value is listed as 0.70~0.85, the “Absorbance UVmax” value is recorded as 0.80~0.95 and the UVmax is recorded as 317 nm. The “numbers of persons + (Clear sunburn was recognized)” value in the series on sunburn [3] was 0 persons. The “numbers of persons + (Almost no change)” value in the series with sunburn [4] was determined as 4 persons. Further, the “histological comparison of skin of applied portion and skin of normal portion” value in series [5] was “no histological difference”.

Regarding `Cc1ccc(/C=C/C(=O)c2ccc(O)cc2O)cc1` [Example 9], in series [1], the “Inhibition ratio 10^-5 concentration” value was 25% and the “Inhibition ratio 10^-4M concentration” value is reported as 90 % or more. Also, in series [2], the “Absorbance 300 nm” value is on record as 0.40~0.55, the “Absorbance 350 nm” value is 0.90~1.00, the “Absorbance UVmax” value is 0.80~1.10 and the UVmax was found to be 352 nm. Besides, in the series with sunburn [3], the “numbers of persons + (Clear sunburn was recognized)” value was 0 persons. Besides, in the series on sunburn [4], the “numbers of persons + (Almost no change)” value turned out to be 4 persons.

Take `O=C(/C=C/c1ccc(O)c(O)c1)c1ccc(O)cc1` [Example 13]: in series [1], the “Inhibition ratio 10^-5 concentration” value is 84% and the “Inhibition ratio 10^-4M concentration” value is reported as 90 % or more. In series [2], the “Absorbance 300 nm” value was 0.35~0.50, the “Absorbance 350 nm” value is given as 0.85~1.00, the “Absorbance UVmax” value is recorded as 1.00~1.15 and the UVmax is recorded as 365 nm.

On to `O=C(/C=C/c1ccc(C(F)(F)F)cc1)c1ccc(O)cc1O` [Example 5], for which, in series [1], the “Inhibition ratio 10^-5 concentration” value stood at 15% and the “Inhibition ratio 10^-4M concentration” value was 90 % or more. In series [2], the “Absorbance 300 nm” value is recorded as 0.60~0.75, the “Absorbance 350 nm” value was 0.50~0.65, the “Absorbance UVmax” value is 0.60~0.80 and the UVmax was determined as 305 nm.

Turning to `O=C(/C=C/c1ccc([N+](=O)[O-])cc1)c1ccc(O)cc1O` [Example 11], in series [1], the “Inhibition ratio 10^-5 concentration” value stood at 62% and the “Inhibition ratio 10^-4M concentration” value is reported as 90 % or more. In series [2], the “Absorbance 300 nm” value is listed as 0.60~0.75, the “Absorbance 350 nm” value is 0.75~0.90, the “Absorbance UVmax” value is 0.80~0.90 and the UVmax was 320 nm.

`O=C(/C=C/c1cccc(F)c1)c1ccc(O)cc1` [Example 2]: in series [1], the “Inhibition ratio 10^-5 concentration” value is 16% and the “Inhibition ratio 10^-4M concentration” value is on record as 90 % or more. In series [2], the “Absorbance 300 nm” value is recorded as 0.90~1.00, the “Absorbance 350 nm” value is 0.45~0.55, the “Absorbance UVmax” value is reported as 0.90~1.20 and the UVmax worked out at 318 nm. The “numbers of persons + (Clear sunburn was recognized)” value in the series on sunburn [3] came out at 0 persons. Besides, the “numbers of persons + (Almost no change)” value with sunburn [4] is 4 persons.

`COc1ccc2c(c1)c(CC(=O)O)c(C)n2C(=O)c1ccc(Cl)cc1` [indomethacin, reference compound]: the inhibition of swelling entry in series [6] is listed as “significantly inhibited swelling”.

`O=C(/C=C/c1ccccc1F)c1ccc(O)cc1O` [Example 3]: in series [1], the “Inhibition ratio 10^-5 concentration” value is 90 % or more and the “Inhibition ratio 10^-4M concentration” value is reported as 90 % or more. In series [2], the “Absorbance 300 nm” value is 0.70~0.85, the “Absorbance 350 nm” value was 0.80~0.95, the “Absorbance UVmax” value is listed as 0.80~1.10 and the UVmax was 320 nm.

Turning to `O=C(/C=C/c1ccc2c(c1)OCO2)c1ccc(O)cc1` [Example 12], the “Inhibition ratio 10^-4M concentration” value in series [1] is 90 % or more. Further, in series [2], the “Absorbance 300 nm” value was 0.30~0.45, the “Absorbance 350 nm” value is 0.85~1.00, the “Absorbance UVmax” value is reported as 0.90~1.00 and the UVmax came out at 355 nm.

For the compound `CCOc1ccc(/C=C/C(=O)c2ccc(O)cc2O)cc1` [Example 6], in series [1], the “Inhibition ratio 10^-5 concentration” value stood at 30% and the “Inhibition ratio 10^-4M concentration” value is listed as 90 % or more. Moreover, in series [2], the “Absorbance 300 nm” value is 0.20~0.40, the “Absorbance 350 nm” value was 0.60~0.75, the “Absorbance UVmax” value was 0.80~0.95 and the UVmax is 364 nm. Further, the “numbers of persons + (Clear sunburn was recognized)” value in the series with sunburn [3] is given as 0 persons. Also, the “numbers of persons + (Almost no change)” value in the series on sunburn [4] is recorded as 3 persons.

In the case of `CN1CCCC(n2nc(Cc3ccc(Cl)cc3)c3ccccc3c2=O)CC1` (stereo not drawn) [Azelastine, reference compound], the inhibition at 30 µM in series [7] is 20.8 ± 4.2%.

In the case of `O=C(/C=C/c1ccc(F)cc1)c1ccc(O)cc1O` [Example 4], in series [1], the “Inhibition ratio 10^-5 concentration” value is recorded as 90 % or more and the “Inhibition ratio 10^-4M concentration” value is reported as 90 % or more. Moreover, in series [2], the “Absorbance 300 nm” value is listed as 0.50~0.65, the “Absorbance 350 nm” value is on record as 0.60~0.70, the “Absorbance UVmax” value is given as 0.55~0.70 and the UVmax stood at 346 nm. Moreover, the “numbers of persons + (Clear sunburn was recognized)” value in the series with sunburn [3] was found to be 0 persons. Also, in the series with sunburn [4], the “numbers of persons + (Almost no change)” value stood at 4 persons.

As for `O=C(/C=C/c1ccccc1)c1ccc(O)cc1` [Example 8], in series [1], the “Inhibition ratio 10^-5 concentration” value stood at 64% and the “Inhibition ratio 10^-4M concentration” value is 90 % or more. In series [2], the “Absorbance 300 nm” value was 1.40~1.50, the “Absorbance 350 nm” value was 0.75~0.85, the “Absorbance UVmax” value is given as 1.80~2.10 and the UVmax was 318 nm.

The values above are taken from EP0502205A1, “CHALCONE DERIVATIVE AND ULTRAVIOLET SCREENING COSMETIC” (NIPPON HYPOX LABORATORIES INCORPORATED, priority 1990, dated 1992).
